From patent US10617693B2, “Methods of treating and/or preventing actinic keratosis” (Athenex, Inc., priority 2017, dated 2020)

Tested on: subjects with AK on the face or scalp
Test: Phase 2a study KX01-AK-002: local skin reactions (grade 0 not present to 4 worst) and adverse events, 0.5 mg KX-01 on 25 cm^2
Assay type: in vivo, human
Excerpt: An ongoing Phase 2a, open-label, multicenter, activity and safety study of KX-01 administered topically in subjects with AK on the face or scalp is described herein. […] Secondary objectives are to assess the activity of KX-01 administered topically during Days 1-57 based on reduction of AK lesion counts from baseline, assess the safety and tolerability and pharmacokinetics, and contrast the dose regimens (5-day treatment with 3-day treatment) in terms of activity and safety in subjects with AK on the face or scalp. This uncontrolled, nonrandomized trial is being conducted at 16 investigational sites in the United States. Enrollment is sequential for 2 cohorts of approximately 80 subjects each. Enrollment is closed for Cohort 1 and ongoing for Cohort 2. The two treatment cohorts are summarized below: • Cohort 1: 0.5 mg KX-01 administered topically to a contiguous treatment area of 25 cm^2 with 4-8 clinically typical AK lesions for 5 consecutive days • Cohort 2: 0.5 mg KX-01 administered topically to a contiguous treatment area of 25 cm^2 with 4-8 clinically typical AK lesions for 3 consecutive days
0.5 mg KX-01 is administered topically to an area of 25 cm^2 on the face or scalp by site staff on treatment days. […] AK lesion counts are recorded at baseline, days 8, 15, 29, and 57. […] Standardized photography of treatment area is performed at baseline, day 8 and day 57. Plasma samples are being collected at preplanned time points on days 1 and 5 for Cohort 1, and on days 1 and 3 for Cohort 2.
Absence or presence of hyperpigmentation, hypopigmentation and scarring are also assessed. Application site reactions not classified as LSRs are reported as AEs. […] LSRs and AEs are reported separately. All LSRs, pigmentation, and scarring in the treatment area will be followed to resolution or stabilization.
The range of possible composite scores is 0-24.
The Phase 2a trial described in Example 2a was completed with 84 eligible subjects enrolled in each of two cohorts: one cohort was subjected to the treatment for 5 consecutive days, and the other cohort was subjected to the treatment for 3 consecutive days. The results are described below and in FIG. 5.

O=C(Cc1ccc(-c2ccc(OCCN3CCOCC3)cc2)cn1)NCc1ccccc1 [KX-01]
9/67: Flaking/Scaling grade 2, n/N subjects (Day 15, Cohort 1 (5-day))
66/67: Erosion/Ulceration grade 0, n/N subjects (Day 15, Cohort 1 (5-day)) | Swelling grade 0, n/N subjects (Day 29, Cohort 1 (5-day))
12/67: Erythema grade 1, n/N subjects (Day 57, Cohort 1 (5-day))
14/67: Flaking/Scaling grade 1, n/N subjects (Day 15, Cohort 1 (5-day))
51/67: Flaking/Scaling grade 0, n/N subjects (Day 29, Cohort 1 (5-day))
18/67: Erythema grade 1, n/N subjects (Day 29, Cohort 1 (5-day))
57/67: Flaking/Scaling grade 0, n/N subjects (Day 57, Cohort 1 (5-day))
39/67: Flaking/Scaling grade 0, n/N subjects (Day 15, Cohort 1 (5-day))
45/67: Erythema grade 0, n/N subjects (Day 29, Cohort 1 (5-day))
25/67: Erythema grade 1, n/N subjects (Day 15, Cohort 1 (5-day))
63/67: Crusting grade 0, n/N subjects (Day 15, Cohort 1 (5-day)) | Crusting grade 0, n/N subjects (Day 57, Cohort 1 (5-day))
5/67: Flaking/Scaling grade 3, n/N subjects (Day 15, Cohort 1 (5-day))
65/67: Crusting grade 0, n/N subjects (Day 29, Cohort 1 (5-day))
2/67: Erythema grade 3, n/N subjects (Day 15, Cohort 1 (5-day)) | Crusting grade 1, n/N subjects (Day 29, Cohort 1 (5-day)) | Flaking/Scaling grade 2, n/N subjects (Day 29, Cohort 1 (5-day)) | Erythema grade 2, n/N subjects (Day 57, Cohort 1 (5-day))
4/67: Crusting grade 1, n/N subjects (Day 15, Cohort 1 (5-day)) | Erythema grade 2, n/N subjects (Day 29, Cohort 1 (5-day)) | Crusting grade 1, n/N subjects (Day 57, Cohort 1 (5-day))
67/67: Swelling grade 0, n/N subjects (Day 15, Cohort 1 (5-day)) | Vesiculation/Pustulation grade 0, n/N subjects (Day 15, Cohort 1 (5-day)) | Erosion/Ulceration grade 0, n/N subjects (Day 29, Cohort 1 (5-day)) | Vesiculation/Pustulation grade 0, n/N subjects (Day 29, Cohort 1 (5-day)) | Erosion/Ulceration grade 0, n/N subjects (Day 57, Cohort 1 (5-day)) | Swelling grade 0, n/N subjects (Day 57, Cohort 1 (5-day)) | Vesiculation/Pustulation grade 0, n/N subjects (Day 57, Cohort 1 (5-day))
27/67: Erythema grade 0, n/N subjects (Day 15, Cohort 1 (5-day))
1/67: Erosion/Ulceration grade 1, n/N subjects (Day 15, Cohort 1 (5-day)) | Flaking/Scaling grade 3, n/N subjects (Day 29, Cohort 1 (5-day)) | Swelling grade 1, n/N subjects (Day 29, Cohort 1 (5-day))
10/67: Flaking/Scaling grade 1, n/N subjects (Day 57, Cohort 1 (5-day))
53/67: Erythema grade 0, n/N subjects (Day 57, Cohort 1 (5-day))
safe and well tolerated: Safety and tolerability (topically once daily for 5 days)
0: Vesiculation/Pustulation grade 3, n/N subjects (Day 8, Cohort 1 (5-day)) | Vesiculation/Pustulation grade 4, n/N subjects (Day 8, Cohort 1 (5-day)) | Crusting grade 2, n/N subjects (Day 15, Cohort 1 (5-day)) | Crusting grade 3, n/N subjects (Day 15, Cohort 1 (5-day)) | Crusting grade 4, n/N subjects (Day 15, Cohort 1 (5-day)) | Erosion/Ulceration grade 2, n/N subjects (Day 15, Cohort 1 (5-day)) | Erosion/Ulceration grade 3, n/N subjects (Day 15, Cohort 1 (5-day)) | Erosion/Ulceration grade 4, n/N subjects (Day 15, Cohort 1 (5-day)) | Erythema grade 4, n/N subjects (Day 15, Cohort 1 (5-day)) | Flaking/Scaling grade 4, n/N subjects (Day 15, Cohort 1 (5-day)) | Swelling grade 1, n/N subjects (Day 15, Cohort 1 (5-day)) | Swelling grade 2, n/N subjects (Day 15, Cohort 1 (5-day)) | Swelling grade 3, n/N subjects (Day 15, Cohort 1 (5-day)) | Swelling grade 4, n/N subjects (Day 15, Cohort 1 (5-day)) | Vesiculation/Pustulation grade 1, n/N subjects (Day 15, Cohort 1 (5-day)) | Vesiculation/Pustulation grade 2, n/N subjects (Day 15, Cohort 1 (5-day)) | Vesiculation/Pustulation grade 3, n/N subjects (Day 15, Cohort 1 (5-day)) | Vesiculation/Pustulation grade 4, n/N subjects (Day 15, Cohort 1 (5-day)) | Crusting grade 2, n/N subjects (Day 29, Cohort 1 (5-day)) | Crusting grade 3, n/N subjects (Day 29, Cohort 1 (5-day)) | Crusting grade 4, n/N subjects (Day 29, Cohort 1 (5-day)) | Erosion/Ulceration grade 1, n/N subjects (Day 29, Cohort 1 (5-day)) | Erosion/Ulceration grade 2, n/N subjects (Day 29, Cohort 1 (5-day)) | Erosion/Ulceration grade 3, n/N subjects (Day 29, Cohort 1 (5-day)) | Erosion/Ulceration grade 4, n/N subjects (Day 29, Cohort 1 (5-day)) | Erythema grade 3, n/N subjects (Day 29, Cohort 1 (5-day)) | Erythema grade 4, n/N subjects (Day 29, Cohort 1 (5-day)) | Flaking/Scaling grade 4, n/N subjects (Day 29, Cohort 1 (5-day)) | Swelling grade 2, n/N subjects (Day 29, Cohort 1 (5-day)) | Swelling grade 3, n/N subjects (Day 29, Cohort 1 (5-day)) | Swelling grade 4, n/N subjects (Day 29, Cohort 1 (5-day)) | Vesiculation/Pustulation grade 1, n/N subjects (Day 29, Cohort 1 (5-day)) | Vesiculation/Pustulation grade 2, n/N subjects (Day 29, Cohort 1 (5-day)) | Vesiculation/Pustulation grade 3, n/N subjects (Day 29, Cohort 1 (5-day)) | Vesiculation/Pustulation grade 4, n/N subjects (Day 29, Cohort 1 (5-day)) | Crusting grade 2, n/N subjects (Day 57, Cohort 1 (5-day)) | Crusting grade 3, n/N subjects (Day 57, Cohort 1 (5-day)) | Crusting grade 4, n/N subjects (Day 57, Cohort 1 (5-day)) | Erosion/Ulceration grade 1, n/N subjects (Day 57, Cohort 1 (5-day)) | Erosion/Ulceration grade 2, n/N subjects (Day 57, Cohort 1 (5-day)) | Erosion/Ulceration grade 3, n/N subjects (Day 57, Cohort 1 (5-day)) | Erosion/Ulceration grade 4, n/N subjects (Day 57, Cohort 1 (5-day)) | Erythema grade 3, n/N subjects (Day 57, Cohort 1 (5-day)) | Erythema grade 4, n/N subjects (Day 57, Cohort 1 (5-day)) | Flaking/Scaling grade 2, n/N subjects (Day 57, Cohort 1 (5-day)) | Flaking/Scaling grade 3, n/N subjects (Day 57, Cohort 1 (5-day)) | Flaking/Scaling grade 4, n/N subjects (Day 57, Cohort 1 (5-day)) | Swelling grade 1, n/N subjects (Day 57, Cohort 1 (5-day)) | Swelling grade 2, n/N subjects (Day 57, Cohort 1 (5-day)) | Swelling grade 3, n/N subjects (Day 57, Cohort 1 (5-day)) | Swelling grade 4, n/N subjects (Day 57, Cohort 1 (5-day)) | Vesiculation/Pustulation grade 1, n/N subjects (Day 57, Cohort 1 (5-day)) | Vesiculation/Pustulation grade 2, n/N subjects (Day 57, Cohort 1 (5-day)) | Vesiculation/Pustulation grade 3, n/N subjects (Day 57, Cohort 1 (5-day)) | Vesiculation/Pustulation grade 4, n/N subjects (Day 57, Cohort 1 (5-day))
13/67: Erythema grade 2, n/N subjects (Day 15, Cohort 1 (5-day)) | Flaking/Scaling grade 1, n/N subjects (Day 29, Cohort 1 (5-day))
no Grade 4 LSRs were observed: Grade 4 LSRs (after 5 days of treatment, interim)
